Results as given in patent US10966426B2, “Herbicidal compositions comprising phenylpyrimidines” (BASF SE, priority 2016, dated 2021).
Where “and” joins values, the source holds several entries; their conditions need not be identical. Equal values may be shown once.

How the values were obtained:
Type in all cases: in vivo
Brachiaria decumbens = assay: greenhouse post-emergence treatment, BRADC
In short: (§1)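 Mixtures formulated as 10% by weight emulsion concentrates, applied in water post-emergence to plants of 3–15 cm. Cool-season species held at 10-25° C., warm-season at 20-35° C.; rating 0 (no damage) to 100 (destruction).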

Papaver rhoeas = assay: greenhouse post-emergence treatment, PAPRH
In short: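 Visual herbicidal effect (0–100) recorded over a 2 to 4 week test period after foliar treatment at plant heights of 3 to 15 cm. Expected combination effects derived by the Colby formula from single-component effects X and Y.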

Ambrosia elatior [1] = assay: greenhouse pre-emergence treatment, AMBEL
In short: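 Pre-emergence spray of compounds, alone or as combinations formulated as 10% emulsion concentrate in water, directly after sowing in loamy sand (~3.0% humus); pots hooded until rooting, kept at 10-25° C or 20-35° C per species for 2 to 4 weeks. Damage scored 0-100 (100 = no emergence/complete destruction); Colby expected value E=X+Y−(X·Y/100).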

Ambrosia elatior [2] = assay: greenhouse post-emergence treatment, AMBEL
In short: as §1

Poa annua = assay: greenhouse post-emergence treatment, POAAN
In short: as §1

[3] = 20 DAT, Ex. 26 solo 62.5 gai/ha
[4] = 20 DAT, AMBEL, Ex. 26 solo 62.5 gai/ha
[5] = 20 DAT, AMBEL, Ex. 26 solo 125 gai/ha
[6] = 20 DAT, AMBEL, Ex. 26 solo 250 gai/ha
[7] = AMBEL, Ex. 26 solo 62.5 gai/ha, 20 DAT
[8] = AMBEL, Ex. 26 solo 125 gai/ha, 20 DAT
[9] = Ex. 26 solo 250 gai/ha, 21 DAT, AMBEL

COC(=O)c1nc(C2CC2)ncc1-c1ccc(F)cc1Cl [Ex. 26]
% activity (Brachiaria decumbens; 20 DAT, BRADC, Ex. 26 solo 125 gai/ha): 30% and 55% | % activity (Brachiaria decumbens; 20 DAT, BRADC, Ex. 26 solo 250 gai/ha): 60% | % activity (Brachiaria decumbens; [3]): 0% | % activity (Brachiaria decumbens; 20 DAT, Ex. 26 solo 250 gai/ha): 35% and 50% and 30% | % activity (Brachiaria decumbens; BRADC, 21 DAT, solo Ex. 26 62.5 gai/ha): 0% | % activity (Brachiaria decumbens; BRADC, 21 DAT, solo Ex. 26 125 gai/ha): 10% | % activity (Brachiaria decumbens; BRADC, 21 DAT, solo Ex. 26 250 gai/ha): 40% | % activity (Brachiaria decumbens; BRADC, Ex. 26 solo 125 gai/ha, 20 DAT): 30% and 40% | % activity (Brachiaria decumbens; Ex. 26 solo 62.5 gai/ha, 20 DAT, BRADC (pyridate table)): 20% | % activity (Brachiaria decumbens; Ex. 26 solo 62.5 gai/ha, 20 DAT, BRADC (pyroxsulam table)): 0% | % activity (Brachiaria decumbens; Ex. 26 solo 62.5 gai/ha, 21 DAT, BRADC): 0% | % activity (Brachiaria decumbens; Ex. 26 solo 125 gai/ha, 20 DAT, BRADC (pyridate table)): 40% | % activity (Brachiaria decumbens; Ex. 26 solo 125 gai/ha, 20 DAT, BRADC (pyroxsulam table)): 20% | % activity (Brachiaria decumbens; Ex. 26 solo 125 gai/ha, 21 DAT, BRADC): 0% | % activity (Brachiaria decumbens; Ex. 26 solo 250 gai/ha, 20 DAT, BRADC (pyroxsulam table)): 35% | % activity (Brachiaria decumbens; Ex. 26 solo, 125 gai/ha, 20 DAT, BRADC): 0% | % activity (Brachiaria decumbens; Ex. 26 solo, 125 gai/ha, 21 DAT, BRADC): 10% | % activity (Brachiaria decumbens; Ex. 26 solo, 250 gai/ha, 20 DAT, BRADC): 30% | % activity (Brachiaria decumbens; Ex. 26 solo, 250 gai/ha, 21 DAT, BRADC): 40% | % activity (Papaver rhoeas; [3]): 0% | % activity (Papaver rhoeas; 20 DAT, Ex. 26 solo 125 gai/ha): 0% | % activity (Papaver rhoeas; 20 DAT, Ex. 26 solo 250 gai/ha): 0% | % activity (Papaver rhoeas; 20 DAT, PAPRH, Ex. 26 solo 125 gai/ha): 0% | % activity (Papaver rhoeas; 20 DAT, PAPRH, Ex. 26 solo 250 gai/ha): 20% | % activity (Papaver rhoeas; 21 DAT, Ex. 26 solo 125 gai/ha): 0% | % activity (Papaver rhoeas; 21 DAT, Ex. 26 solo 250 gai/ha): 0% | % activity (Papaver rhoeas; Ex. 26 solo 62.5 gai/ha, 20 DAT, PAPRH (pyridate table)): 0% | % activity (Papaver rhoeas; Ex. 26 solo 62.5 gai/ha, 20 DAT, PAPRH (pyroxsulam table)): 0% | % activity (Papaver rhoeas; Ex. 26 solo 62.5 gai/ha, 21 DAT, PAPRH): 0% | % activity (Papaver rhoeas; Ex. 26 solo 125 gai/ha, 20 DAT, PAPRH (pyridate table)): 0% | % activity (Papaver rhoeas; Ex. 26 solo 125 gai/ha, 20 DAT, PAPRH (pyroxsulam table)): 0% | % activity (Papaver rhoeas; Ex. 26 solo 250 gai/ha, 20 DAT, PAPRH (pyridate table)): 45% | % activity (Papaver rhoeas; Ex. 26 solo 250 gai/ha, 20 DAT, PAPRH (pyroxsulam table)): 0% | % activity (Papaver rhoeas; Ex. 26 solo 250 gai/ha, 21 DAT, PAPRH): 0% | % activity (Papaver rhoeas; Ex. 26 solo, 125 gai/ha, 21 DAT, PAPRH): 0% | % activity (Papaver rhoeas; Ex. 26 solo, 250 gai/ha, 21 DAT, PAPRH): 15% | % activity (Papaver rhoeas; PAPRH, Ex. 26 solo 62.5 gai/ha, 20 DAT): 0% | % activity (Papaver rhoeas; PAPRH, Ex. 26 solo 125 gai/ha, 20 DAT): 0% | % activity (Ambrosia elatior [1]; 20 DAT, AMBEL, Ex. 26 solo 31.25 gai/ha): 0% | % activity (Ambrosia elatior [1]; [4]): 0% | % activity (Ambrosia elatior [1]; [5]): 0% | % activity (Ambrosia elatior [1]; [6]): 0% | % activity (Ambrosia elatior [1]; 20 DAT, Ex. 26 solo 31.25 gai/ha): 0% | % activity (Ambrosia elatior [1]; [3]): 0% | % activity (Ambrosia elatior [1]; 20 DAT, Ex. 26 solo 125 gai/ha): 0% | % activity (Ambrosia elatior [1]; 21 DAT, AMBEL, Ex. 26 solo 250 gai/ha): 0% | % activity (Ambrosia elatior [1]; AMBEL, 20 DAT, solo Ex. 26 62.5 gai/ha): 0% | % activity (Ambrosia elatior [1]; AMBEL, 20 DAT, solo Ex. 26 125 gai/ha): 0% | % activity (Ambrosia elatior [1]; AMBEL, Ex. 26 solo 31.25 gai/ha, 20 DAT): 0% | % activity (Ambrosia elatior [1]; [7]): 0% | % activity (Ambrosia elatior [1]; [8]): 0% | % activity (Ambrosia elatior [1]; [9]): 0% | % activity (Ambrosia elatior [1]; Ex. 26 solo, 31.25 gai/ha, 20 DAT, AMBEL): 0% | % activity (Ambrosia elatior [1]; Ex. 26 solo, 62.5 gai/ha, 20 DAT, AMBEL): 0% | % activity (Ambrosia elatior [1]; Ex. 26 solo, 125 gai/ha, 20 DAT, AMBEL): 0% | % activity (Ambrosia elatior [2]; [4]): 0% | % activity (Ambrosia elatior [2]; [5]): 0% | % activity (Ambrosia elatior [2]; [6]): 40% | % activity (Ambrosia elatior [2]; [3]): 0% | % activity (Ambrosia elatior [2]; 20 DAT, Ex. 26 solo 125 gai/ha): 0% | % activity (Ambrosia elatior [2]; 20 DAT, Ex. 26 solo 250 gai/ha): 0% | % activity (Ambrosia elatior [2]; 21 DAT, Ex. 26 solo 250 gai/ha): 0% | % activity (Ambrosia elatior [2]; [7]): 0% | % activity (Ambrosia elatior [2]; [8]): 0% | % activity (Ambrosia elatior [2]; AMBEL, Ex. 26 solo 250 gai/ha, 20 DAT): 60% | % activity (Ambrosia elatior [2]; Ex. 26 solo 62.5 gai/ha, 20 DAT, AMBEL (pyridate table)): 0% | % activity (Ambrosia elatior [2]; Ex. 26 solo 62.5 gai/ha, 20 DAT, AMBEL (pyroxsulam table)): 0% | % activity (Ambrosia elatior [2]; Ex. 26 solo 62.5 gai/ha, 21 DAT, AMBEL): 5% | % activity (Ambrosia elatior [2]; Ex. 26 solo 125 gai/ha, 20 DAT, AMBEL (pyridate table)): 0% | % activity (Ambrosia elatior [2]; Ex. 26 solo 125 gai/ha, 20 DAT, AMBEL (pyroxsulam table)): 0% | % activity (Ambrosia elatior [2]; Ex. 26 solo 250 gai/ha, 20 DAT, AMBEL (pyroxsulam table)): 20% | % activity (Ambrosia elatior [2]; [9]): 0% | % activity (Ambrosia elatior [2]; Ex. 26 solo, 125 gai/ha, 21 DAT, AMBEL): 0% | % activity (Ambrosia elatior [2]; Ex. 26 solo, 250 gai/ha, 21 DAT, AMBEL): 20% | % activity (Poa annua; 20 DAT, Ex. 26 solo 250 gai/ha): 70% | % activity (Poa annua; 20 DAT, POAAN, Ex. 26 solo 125 gai/ha): 75% and 70% | % activity (Poa annua; 20 DAT, POAAN, Ex. 26 solo 250 gai/ha): 80% | % activity (Poa annua; 21 DAT, Ex. 26 solo 125 gai/ha): 65% | % activity (Poa annua; 21 DAT, Ex. 26 solo 250 gai/ha): 75% | % activity (Poa annua; Ex. 26 solo 62.5 gai/ha, 21 DAT, POAAN): 35% | % activity (Poa annua; Ex. 26 solo, 125 gai/ha, 20 DAT, POAAN): 40% | % activity (Poa annua; Ex. 26 solo, 125 gai/ha, 21 DAT, POAAN): 40% | % activity (Poa annua; Ex. 26 solo, 250 gai/ha, 20 DAT, POAAN): 70% | % activity (Poa annua; POAAN, 21 DAT, solo Ex. 26 62.5 gai/ha): 30% | % activity (Poa annua; POAAN, Ex. 26 solo 125 gai/ha, 20 DAT): 70% | % activity (Poa annua; POAAN, Ex. 26 solo 250 gai/ha, 20 DAT): 60%
